# In the supplement of paper PMC10307832:
# What was measured:
# Test in all cases: relative viability (nuclei count vs DMSO), 5 days (fraction); higher = more cells survive
# RO-3306 + Crizotinib = compound: C1=CC2=C(C=CC(=C2)C=C3C(=O)NC(=NCC4=CC=CS4)S3)N=C1 [RO-3306] + C[C@@H](Oc1cc(-c2cnn(C3CCNCC3)c2)cnc1N)c1c(Cl)ccc(F)c1Cl [Crizotinib] (partner 1 µM)
# Outline: (§1)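 Relative viability divides the nuclei count in treated wells by that in vehicle wells. Lung cancer cell lines were seeded in 1536-well plates, dosed by pin tool the next day, and fixed and stained after 5 days in one step with final 0.05% Triton X-100, 1% formaldehyde and 1 ug/ml Hoechst. Dosing was a single drug or a fixed anchor-drug dose plus five library-drug doses (not always all listed) in √10 steps, and values are medians of duplicate plates imaged at 4×.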
# [1] = compound: O=S(=O)(c1ccccc1)N(CC(F)(F)F)c1ccc(C(O)(C(F)(F)F)C(F)(F)F)cc1 + Cc1nc(NC(=O)N2CCC[C@H]2C(N)=O)sc1-c1ccnc(C(C)(C)C(F)(F)F)c1 [Alpelisib] (partner 2 µM)
# Outline: as §1
# RO-3306 + Tozasertib = compound: C1=CC2=C(C=CC(=C2)C=C3C(=O)NC(=NCC4=CC=CS4)S3)N=C1 [RO-3306] + Cc1cc(Nc2cc(N3CCN(C)CC3)nc(Sc3ccc(NC(=O)C4CC4)cc3)n2)n[nH]1 [Tozasertib] (partner 0.1 µM)
# Outline: as §1
# [2] = compound: O=S(=O)(c1ccccc1)N(CC(F)(F)F)c1ccc(C(O)(C(F)(F)F)C(F)(F)F)cc1 + C[C@@H](Oc1cc(-c2cnn(C3CCNCC3)c2)cnc1N)c1c(Cl)ccc(F)c1Cl [Crizotinib] (partner 1 µM)
# Outline: as §1
cell line,measurement,setting,value
UMC-11,relative viability,RO-3306 + Crizotinib; first compound 0.01 µM,0.49
same,relative viability,RO-3306 + Crizotinib; first compound 0.03162 µM,0.555
same,relative viability,RO-3306 + Crizotinib; first compound 0.1 µM,0.62
same,relative viability,RO-3306 + Crizotinib; first compound 0.3162 µM,0.906
same,relative viability,RO-3306 + Crizotinib; first compound 1 µM,0.48
same,relative viability,[1]; first compound 0.8 µM,1.24
same,relative viability,[1]; first compound 2.53 µM,0.98
same,relative viability,[1]; first compound 8 µM,1.25
same,relative viability,RO-3306 + Tozasertib; first compound 0.01 µM,0.174
same,relative viability,RO-3306 + Tozasertib; first compound 0.03162 µM,0.225
same,relative viability,RO-3306 + Tozasertib; first compound 0.1 µM,0.199
same,relative viability,RO-3306 + Tozasertib; first compound 0.3162 µM,0.213
same,relative viability,RO-3306 + Tozasertib; first compound 1 µM,0.194
same,relative viability,[2]; first compound 0.8 µM,0.585
same,relative viability,[2]; first compound 2.53 µM,0.583
same,relative viability,[2]; first compound 8 µM,0.749
